Reference: patent publication US20260109707A1, “HETEROBIFUNCTIONAL COMPOUNDS AND METHODS OF TREATING DISEASE” (Halda Therapeutics OpCo. Inc., priority 2022, published 2026)
Where two headings read alike, the source gives them in different places.

What was measured:
[1] = tested on: T-Rex 293 cell line SC3 cells lacking increased expression of androgen receptor protein; assay: Cellular growth inhibition assay, T-Rex 293 SC3 cells without doxycycline (CellTiter-Glo, 72 hours); assay type: cell-based; settings: T-Rex 293 cell line SC3 cells not exposed to doxycycline (lacking increased androgen receptor expression)
In short: (§1)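 Growth inhibition is measured in an inducible AR-expressing T-Rex 293 clone, SC3, cultured with or without 10 ng/mL doxycycline in hormone-depleted medium. Test compounds are applied for 72 hours. GI50 values derive from CellTiter-Glo 2.0 signal fitted by four-parameter regression.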

[2] = tested on: T-Rex 293 cell line SC3 cells having increased expression of androgen receptor protein due to exposure to doxycycline; assay: Cellular growth inhibition assay, T-Rex 293 SC3 cells with doxycycline (CellTiter-Glo, 72 hours); assay type: cell-based; settings: T-Rex 293 SC3 cells with increased androgen receptor expression due to doxycycline (10 ng/mL)
In short: as §1

VCaP cells = assay: Cellular growth inhibition assay for VCaP cells (CellTiter-Glo, 72 hours); assay type: cell-based, human
In short: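 Luminescent viability signal after 72 h of compound exposure gave GI50 values by four-parameter nonlinear regression. Compounds were added in 0.5% DMSO to cells plated 24 h earlier at 5000/well in DMEM containing 10% FBS.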

| SMILES | GI50 (VCaP cells; Homo sapiens, VCaP, 72 h) | GI50 (VCaP cells) | GI50 ([1]; 72 h) | GI50 ([2]; 72 h) | GI50 [1] | GI50 [2] |
| --- | --- | --- | --- | --- | --- | --- |
| Cc1sc2c(c1C)C(c1ccc(OC3CCC4(CCCN(c5ccc(C(=O)N[C@H]6CC[C@H](Oc7ccc(C#N)c(Cl)c7)CC6)nn5)C4)C3)cc1)=NC1(CC1)c1nnc(C)n1-2 (stereo partly drawn) [I-526] | – | < 0.5 µM | – | – | 0.5 to 1.5 µM | < 0.5 µM |
| Cc1sc2c(c1C)C(c1ccc(N3CCC4(CC3)CCN(c3ccc(C(=O)N[C@H]5CC[C@H](Oc6ccc(C#N)c(Cl)c6)CC5)nn3)CC4)cc1)=N[C@@H](C)c1nnc(C)n1-2 [I-485] | < 0.5 µM | – | < 0.5 µM | < 0.5 µM | – | – |
| Cc1sc2c(c1C)C(c1ccc(N3CC4(CCC(Cc5ccc(C(=O)N[C@H]6CC[C@H](Oc7ccc(C#N)c(Cl)c7)CC6)nn5)CC4)C3)cc1)=N[C@@H](Cc1ncco1)c1nnc(C)n1-2 [I-515] | < 0.5 µM | – | > 3 µM | < 0.5 µM | – | – |
| Cc1sc2c(c1C)C(c1ccc(OCC3CC4(CCCN(c5ccc(C(=O)N[C@H]6CC[C@H](Oc7ccc(C#N)c(Cl)c7)CC6)nn5)C4)C3)cc1)=NC1(CC1)c1nnc(C)n1-2 (stereo partly drawn) [I-470] | – | 0.5 to 1.5 µM | – | < 0.5 µM | 0.5 to 1.5 µM | – |
| Cc1sc2c(c1C)C(c1ccc(N3CC4(CC(C#Cc5ccc(C(=O)N[C@H]6CC[C@H](Oc7ccc(C#N)c(Cl)c7)CC6)nn5)C4)C3)cc1)=N[C@@H](Cc1ncco1)c1nnc(C)n1-2 [I-545] | < 0.5 µM | – | < 0.5 µM | < 0.5 µM | – | – |
| Cc1sc2c(c1C)C(c1ccc(OC3CC4(C3)CC3(CCN(c5ccc(C(=O)N[C@H]6CC[C@H](Oc7ccc(C#N)c(Cl)c7)CC6)nn5)CC3)C4)cc1)=NCc1nnc(C)n1-2 [I-453] | < 0.5 µM | – | > 3 µM | < 0.5 µM | – | – |
| Cc1sc2c(c1C)C(c1ccc(C#CC3CC4(C3)CN(c3ccc(C(=O)N[C@H]5CC[C@H](Oc6ccc(C#N)c(Cl)c6)CC5)nn3)C4)cn1)=NC(C)c1nnc(C)n1-2 (stereo partly drawn) [I-457] | < 0.5 µM | – | > 3 µM | < 0.5 µM | – | – |
| Cc1sc2c(c1C)C(c1ccc(C#CC3CC4(CCCN(c5ccc(C(=O)N[C@H]6CC[C@H](Oc7ccc(C#N)c(Cl)c7)CC6)nn5)C4)C3)nc1)=N[C@@H](C)c1nnc(C)n1-2 (stereo partly drawn) [I-459] | < 0.5 µM | – | < 0.5 µM | < 0.5 µM | – | – |
| CCNC(=O)C[C@@H]1N=C(c2ccc(OC3CC(N(C)C4CCN(c5ccc(C(=O)N[C@H]6CC[C@H](Oc7ccc(C#N)c(Cl)c7)CC6)nn5)CC4)C3)cc2)c2c(sc(C)c2C)-n2c(C)nnc21 (stereo partly drawn) [I-46] | < 0.5 µM | – | 0.5 to 1.5 µM | < 0.5 µM | – | – |
| Cc1sc2c(c1C)C(c1ccc(N3CC(C4CCN(c5ccc(C(=O)N[C@H]6CC[C@H](Oc7ccc(C#N)c(Cl)c7)CC6)nn5)C4)C3)cc1)=NC1(CC1)c1nnc(C)n1-2 (stereo partly drawn) [I-551] | – | < 0.5 µM | – | – | > 3 µM | < 0.5 µM |
| Cc1sc2c(c1C)C(c1ccc(C3CCC4(CC3)CCN(c3ccc(C(=O)N[C@H]5CC[C@H](Oc6ccc(C#N)c(Cl)c6)CC5)nn3)C4)cc1)=NC1(CC1)c1nnc(C)n1-2 (stereo partly drawn) [I-517] | – | > 3 µM | > 3 µM | < 0.5 µM | – | – |
| Cc1sc2c(c1C)C(c1ccc(COC3CCC4(CCCN(c5ccc(C(=O)N[C@H]6CC[C@H](Oc7ccc(C#N)c(Cl)c7)CC6)nn5)C4)C3)cc1)=NC1(CC1)c1nnc(C)n1-2 (stereo partly drawn) [I-493] | – | > 3 µM | – | < 0.5 µM | 0.5 to 1.5 µM | – |
| Cc1sc2c(c1C)C(c1ccc(OC3CC4(CCN(c5ccc(C(=O)N[C@H]6CC[C@H](Oc7ccc(C#N)c(Cl)c7)CC6)nn5)CC4)C3)cn1)=N[C@@H](C)c1nnc(C)n1-2 [I-461] | < 0.5 µM | – | – | – | > 3 µM | < 0.5 µM |
| Cc1sc2c(c1C)C(c1ccc(N3CC(C4CCN(c5ccc(C(=O)N[C@H]6CC[C@H](Oc7ccc(C#N)c(Cl)c7)CC6)nn5)C4)C3)cc1)=N[C@@H](C)c1nnc(C)n1-2 (stereo partly drawn) [I-556] | – | < 0.5 µM | – | – | < 0.5 µM | < 0.5 µM |
| CC[C@@H]1N=C(c2ccc(N3CCC4(CCCN(c5ccc(C(=O)N[C@H]6CC[C@H](Oc7ccc(C#N)c(Cl)c7)CC6)nn5)C4)CC3)cc2)c2c(sc(C)c2C)-n2c(C)nnc21 [I-510] | > 3 µM | – | < 0.5 µM | < 0.5 µM | – | – |

Continued, in another order:

| GI50 (VCaP cells; Homo sapiens, VCaP, 72 h) | GI50 (VCaP cells) | SMILES | GI50 ([1]; 72 h) | GI50 ([2]; 72 h) | GI50 [1] | GI50 [2] |
| --- | --- | --- | --- | --- | --- | --- |
| > 3 µM | – | COCC[C@@H]1N=C(c2ccc(N3CCC4(CCCN(c5ccc(C(=O)N[C@H]6CC[C@H](Oc7ccc(C#N)c(Cl)c7)CC6)nn5)C4)CC3)cc2)c2c(sc(C)c2C)-n2c(C)nnc21 [I-569] | > 3 µM | < 0.5 µM | – | – |
| – | < 0.5 µM | Cc1sc2c(c1C)C(c1ccc(CCCC3CCCN(c4ccc(C(=O)N[C@H]5CC[C@H](Oc6ccc(C#N)c(Cl)c6)CC5)nn4)CC3)cn1)=N[C@@H](C)c1nnc(C)n1-2 (stereo partly drawn) [I-700] | – | – | < 0.5 µM | < 0.5 µM |
| 0.5 to 1.5 µM | – | Cc1sc2c(c1C)C(c1ccc(N3C[C@H]4CN(c5ccc(C(=O)N[C@H]6CC[C@H](Oc7ccc(C#N)c(Cl)c7)CC6)nn5)C[C@H]4C3)c(F)c1)=N[C@@H](C)c1nnc(C)n1-2 [I-703] | < 0.5 µM | < 0.5 µM | – | – |
| – | 0.5 to 1.5 µM | Cc1sc2c(c1C)C(c1ccc(CC3CCC4(C3)CN(c3ccc(C(=O)N[C@H]5CC[C@H](Oc6ccc(C#N)c(Cl)c6)CC5)nn3)CCO4)cc1)=N[C@@H](C)c1nnc(C)n1-2 (stereo partly drawn) [I-578] | – | < 0.5 µM | > 3 µM | – |
| < 0.5 µM | – | Cc1sc2c(c1C)C(c1cccc(OC3CCC4(CCN(c5ccc(C(=O)N[C@H]6CC[C@H](Oc7ccc(C#N)c(Cl)c7)CC6)nn5)C4)C3)c1)=N[C@@H](C)c1nnc(C)n1-2 (stereo partly drawn) [I-748] | < 0.5 µM | < 0.5 µM | – | – |
| < 0.5 µM | – | COCC[C@@H]1N=C(c2ccc(C3CCC4(CCCN(c5ccc(C(=O)N[C@H]6CC[C@H](Oc7ccc(C#N)c(Cl)c7)CC6)nn5)C4)CC3)cc2)c2c(sc(C)c2C)-n2c(C)nnc21 (stereo partly drawn) [I-656] | > 3 µM | < 0.5 µM | – | – |
| 0.5 to 1.5 µM | – | Cc1sc2c(c1C)C(c1ccccc1N1CCC3(CCCN(c4ccc(C(=O)N[C@H]5CC[C@H](Oc6ccc(C#N)c(Cl)c6)CC5)nn4)C3)CC1)=N[C@@H](C)c1nnc(C)n1-2 [I-737] | < 0.5 µM | < 0.5 µM | – | – |
| – | < 0.5 µM | Cc1sc2c(c1C)C(c1ccc(N3CCC4(CCN(c5ccc(C(=O)N[C@H]6CC[C@H](Oc7ccc(C#N)c(Cl)c7)CC6)nn5)C4)C3)cc1F)=N[C@@H](C)c1nnc(C)n1-2 (stereo partly drawn) [I-732] | < 0.5 µM | < 0.5 µM | – | – |
| – | < 0.5 µM | Cc1sc2c(c1C)C(c1ccc(C3CCC(CC4CCN(c5ccc(C(=O)N[C@H]6CC[C@H](Oc7ccc(C#N)c(Cl)c7)CC6)nn5)CC4)CC3)cc1)=NC1(CC1)c1nnc(C)n1-2 (stereo partly drawn) [I-757] | – | – | < 0.5 µM | < 0.5 µM |
| 0.5 to 1.5 µM | – | Cc1sc2c(c1C)C(c1cccc(CC3CC4(CCN(c5ccc(C(=O)N[C@H]6CC[C@H](Oc7ccc(C#N)c(Cl)c7)CC6)nn5)CC4)C3)c1)=N[C@@H](C)c1nnc(C)n1-2 [I-684] | > 3 µM | < 0.5 µM | – | – |
| – | < 0.5 µM | Cc1sc2c(c1C)C(c1ccc(N3CCC4(CCN(c5ccc(C(=O)N[C@H]6CC[C@H](Oc7ccc(C#N)c(Cl)c7)CC6)nn5)C4)CC3)c(F)c1)=N[C@@H](C)c1nnc(C)n1-2 [I-735] | – | – | < 0.5 µM | < 0.5 µM |
| – | > 3 µM | Cc1sc2c(c1C)C(c1ccc(C3CCC4(CCN(c5ccc(C(=O)N[C@H]6CC[C@H](Oc7ccc(C#N)c(Cl)c7)CC6)nn5)CC4)C3)cc1)=NC(C(F)(F)F)c1nnc(C)n1-2 (stereo partly drawn) [I-758] | – | – | > 3 µM | > 3 µM |
| < 0.5 µM | – | Cc1sc2c(c1C)C(c1ccc(N3C[C@@H]4CN(c5ccc(C(=O)N[C@H]6CC[C@H](Oc7ccc(C#N)c(Cl)c7)CC6)nn5)C[C@@H]4C3)cc1F)=N[C@@H](C)c1nnc(C)n1-2 [I-676] | < 0.5 µM | < 0.5 µM | – | – |
| – | < 0.5 µM | Cc1sc2c(c1C)C(c1ccc(CC3CC4(CCCN(c5ccc(C(=O)N[C@H]6CC[C@H](Oc7ccc(C#N)c(Cl)c7)CC6)nn5)C4)C3)cn1)=NC(Cc1ncco1)c1nnc(C)n1-2 (stereo partly drawn) [I-770] | – | – | < 0.5 µM | < 0.5 µM |
| < 0.5 µM | – | Cc1sc2c(c1C)C(c1ccc(N3CCOC4(CCN(c5ncc(C(=O)N[C@H]6CC[C@H](Oc7ccc(C#N)c(Cl)c7)CC6)cn5)CC4)C3)cc1)=NC(Cc1ncco1)c1nnc(C)n1-2 (stereo partly drawn) [I-794] | > 3 µM | < 0.5 µM | – | – |
| < 0.5 µM | – | Cc1sc2c(c1C)C(c1ccc(C3CCC(CC4CCN(c5ccc(C(=O)N[C@H]6CC[C@H](Oc7ccc(C#N)c(Cl)c7)CC6)nn5)CC4)CC3)cc1)=N[C@@H](C)c1nnc(C)n1-2 (stereo partly drawn) [I-764] | > 3 µM | < 0.5 µM | – | – |
| – | < 0.5 µM | Cc1sc2c(c1C)C(c1ccc(CC3CC(CC4CCN(c5ccc(C(=O)N[C@H]6CC[C@H](Oc7ccc(C#N)c(Cl)c7)CC6)nn5)CC4)C3)cc1)=N[C@@H](C)c1nnc(C)n1-2 (stereo partly drawn) [I-629] | – | – | > 3 µM | < 0.5 µM |
| – | < 0.5 µM | Cc1sc2c(c1C)C(c1cccc(OC3CCC4(CCN(c5ccc(C(=O)N[C@H]6CC[C@H](Oc7ccc(C#N)c(Cl)c7)CC6)nn5)C4)C3)c1)=N[C@@H](C)c1nnc(C)n1-2 (stereo partly drawn) [I-750] | – | – | < 0.5 µM | < 0.5 µM |
| – | < 0.5 µM | Cc1sc2c(c1C)C(c1ccc(N3CCC4(CC3)CCN(c3ccc(C(=O)N[C@H]5CC[C@H](Oc6ccc(C#N)c(Cl)c6)CC5)nn3)C4)cc1)=NC(C(F)(F)F)c1nnc(C)n1-2 (single isomer, unassigned) [I-719] | – | – | > 3 µM | < 0.5 µM |
| – | < 0.5 µM | Cc1sc2c(c1C)C(c1ccc(C3CCC4(CCN(c5ccc(C(=O)N[C@H]6CC[C@H](Oc7ccc(C#N)c(Cl)c7)CC6)nn5)CC4)C3)nc1)=NC1(CC1)c1nnc(C)n1-2 (stereo partly drawn) [I-739] | – | – | 0.5 to 1.5 µM | < 0.5 µM |
